A word on the Ki: it is a dissociation constant, usually derived from enzyme kinetics or from competition with a known ligand.

This experiment has as its target T1, Vasopressin V1b receptor (Homo sapiens, UniProt P47901).
T1 sequence (P47901 whole entry): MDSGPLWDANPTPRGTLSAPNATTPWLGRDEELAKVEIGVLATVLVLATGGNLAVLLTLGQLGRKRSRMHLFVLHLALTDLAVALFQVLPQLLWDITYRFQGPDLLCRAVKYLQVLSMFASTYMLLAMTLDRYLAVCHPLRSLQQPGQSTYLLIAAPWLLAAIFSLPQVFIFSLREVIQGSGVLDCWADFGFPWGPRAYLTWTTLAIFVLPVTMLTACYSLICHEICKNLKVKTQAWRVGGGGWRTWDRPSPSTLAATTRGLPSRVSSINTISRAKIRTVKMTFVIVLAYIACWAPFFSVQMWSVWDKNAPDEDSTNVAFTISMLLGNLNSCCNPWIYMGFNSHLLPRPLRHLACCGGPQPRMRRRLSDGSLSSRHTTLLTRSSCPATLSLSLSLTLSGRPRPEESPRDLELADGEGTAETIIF
The experiment in a line: Binding Assay. To be noted: pH 7.4; 25 °C. On the procedure: The nonspecific binding was determined with 1 μM AVP (Fluka 94836). All determinations were carried out as duplicate determinations. […] The liquid scintillation measurement took place in a Microbeta TriLux 12 (Wallac).
As to `CCOc1ccc(OC)c(C2(N3CC4(CN(C5CCN(C)CC5)C4)C3)C(=O)N(S(=O)(=O)c3ccc(OC)cc3OC)C3C=CC(C#N)=CC32)c1` (racemic) [US9688678, 2 (+-)-1-(2,4-dimethoxyphenyl)sulfonyl-3-(2-ethoxy-5-methoxy-phenyl)-3-[2-(1-methyl-4-piperidyl)-2,6-diazaspiro[3.3]heptan-6-yl]-2-oxo-indoline-5-carbonitrile], the Ki result was “in the range around 55 nM”.
On to `CCOc1ccc(OC)c(C2(N3CC4(CN(C5CCN(C)CC5)C4)C3)C(=O)N(S(=O)(=O)c3cccc4cccnc34)C3C=CC(C#N)=CC32)c1` (racemic) [US9688678, 3 (+-)-3-(2-ethoxy-5-methoxy-phenyl)-3-[2-(1-methyl-4-piperidyl)-2,6-diazaspiro[3.3]heptan-6-yl]-2-oxo-1-(8-quinolylsulfonyl)indoline-5-carbonitrile], for which the Ki entry was “in the range around 55 nM”.
Turning to `CCOc1ccc(OC)cc1C1(N2CC3(CN(C4CCN(C)CC4)C3)C2)C(=O)N(S(=O)(=O)c2cc(C#N)ccn2)C2C=CC(C#N)=CC21` (racemic) [US9688678, 14 (+-)-1-(4-cyanophenyl)sulfonyl-3-(2-ethoxy-5-methoxy-phenyl)-3-[2-(1-methyl-4-piperidyl)-2,6-diazaspiro[3.3]heptan-6-yl]-2-oxo-indoline-5-carbonitrile], the Ki result is “in the range around 55 nM”.
In the case of `CCOc1ccc(OC)cc1C1(N2CC3(CN(C4CCN(C)CC4)C3)C2)C(=O)N(S(=O)(=O)c2cc(F)ccn2)C2C=CC(C#N)=CC21` (racemic) [US9688678, 16 (+-)-3-(2-ethoxy-5-methoxy-phenyl)-1-(4-fluorophenyl)sulfonyl-3-[2-(1-methyl-4-piperidyl)-2,6-diazaspiro[3.3]heptan-6-yl]-2-oxo-indoline-5-carbonitrile], the Ki result was “in the range around 55 nM”.
The molecule `CCOc1ccc(OC)cc1C1(N2CC3(CN(N4CCN(C)CC4)C3)C2)C(=O)N(S(=O)(=O)c2ccc(OC)cn2)C2C=CC(C#N)=CC21` (racemic) [US9688678, 17 (+-)-3-(2-ethoxy-5-methoxy-phenyl)-1-[(5-methoxy-2-pyridyl)sulfonyl]-3-[2-(4-methylpiperazin-1-yl)-6-azaspiro[3.3]heptan-6-yl]-2-oxo-indoline-5-carbonitrile] displayed a Ki below 1 nM.
In turn, `CCOc1ccc(OC)cc1C1(N2CC3(CN(C4CCN(C(C)C)CC4)C3)C2)C(=O)N(S(=O)(=O)c2ccc(OC)cn2)C2C=CC(C#N)=CC21` (racemic) [US9688678, 19 (+-)-3-(2-ethoxy-5-methoxy-phenyl)-3-[2-(1-isopropyl-4-piperidyl)-2,6-diazaspiro[3.3]heptan-6-yl]-1-[(5-methoxy-2-pyridyl)sulfonyl]-2-oxo-indoline-5-carbonitrile] came in with a Ki below 1 nM.
Molecule `COc1ccc(S(=O)(=O)N2C(=O)C(c3cc(OC)ccc3OC)(N3CC4(CN(C5CCN(C)CC5)C4)C3)C3C=C(C#N)C=CC32)nc1` (racemic) [US9688678, 21 (+-)-3-(2,5-dimethoxyphenyl)-1-[(5-methoxy-2-pyridyl)sulfonyl]-3-[2-(1-methyl-4-piperidyl)-2,6-diazaspiro[3.3]heptan-6-yl]-2-oxo-indoline-5-carbonitrile] showed a Ki below 1 nM.
As for `CCOc1ccc(OC)cc1C1(N2CC3(CN(N4CCN(C)CC4)C3)C2)C(=O)N(S(=O)(=O)c2ccc(OC)cn2)C2C=CC(C#N)=CC21` (single isomer, unassigned; (+)) [US9688678, 17B (+)-3-(2-ethoxy-5-methoxy-phenyl)-1-[(5-methoxy-2-pyridyl)sulfonyl]-3-[2-(4-methylpiperazin-1-yl)-6-azaspiro[3.3]heptan-6-yl]-2-oxo-indoline-5-carbonitrile], the figure is below 1 nM; as for `COc1ccc(S(=O)(=O)N2C(=O)C(c3cccnc3OC)(N3CC4(CN(C5CCN(C)CC5)C4)C3)C3C=C(C#N)C=CC32)nc1` (stereo not drawn) [US9688678, 9A (+)-3-(2-ethoxy-3-pyridyl)-1-[(5-methoxy-2-pyridyl)sulfonyl]-3-[2-(1-methyl-4-piperidyl)-2,6-diazaspiro[3.3]heptan-6-yl]-2-oxo-indoline-5-carbonitrile], below 1 nM; as for `CCOc1ccc(OC)c(C2(N3CC4(CN(C5CCN(C6COC6)CC5)C4)C3)C(=O)N(S(=O)(=O)c3ccc(OC)cn3)C3C=CC(C#N)=CC32)c1` (stereo not drawn) [US9688678, 11 (+)-3-(2-ethoxy-5-methoxyphenyl)-1-((5-methoxypyridin-2-yl)sulfonyl)-3-(6-(1-(oxetan-3-yl)piperidin-4-yl)-2,6-diazaspiro[3.3]heptan-2-yl)-2-oxoindoline-5-carbonitrile], below 1 nM.
In the case of `CCOc1cnc(OCC)c(C2(N3CC4(CN(C5CCN(C)CC5)C4)C3)C(=O)N(S(=O)(=O)c3cc(OC)ccn3)C3C=CC(C#N)=CC32)c1` (stereo not drawn) [US9688678, 12 (+-)-3-(2-ethoxy-3-pyridyl)-1-(4-methoxyphenyl)sulfonyl-3-[2-(1-methyl-4-piperidyl)-2,6-diazaspiro[3.3]heptan-6-yl]-2-oxo-indoline-5-carbonitrile], the Ki result is “in the range around 55 nM”.
As to `COc1ccc(S(=O)(=O)N2C(=O)C(c3ccccc3OC)(N3CC4(CN(C5CCN(C)CC5)C4)C3)C3C=C(C#N)C=CC32)nc1` (stereo not drawn) [US9688678, 18 (+-)3-(2-methoxyphenyl)-1-[(5-methoxy-2-pyridyl)sulfonyl]-3-[2-(1-methyl-4-piperidyl)-2,6-diazaspiro[3.3]heptan-6-yl]-2-oxo-indoline-5-carbonitrile], the Ki was below 1 nM.
As to `COc1ccc(S(=O)(=O)N2C(=O)C(c3ccccc3OC)(N3CC4(CN(C5CCN(C)CC5)C4)C3)C3C=C(C#N)C=CC32)nc1` (stereo not drawn) [US9688678, 18A (+)-3-(2-methoxyphenyl)-1-[(5-methoxy-2-pyridyl)sulfonyl]-3-[2-(1-methyl-4-piperidyl)-2,6-diazaspiro[3.3]heptan-6-yl]-2-oxo-indoline-5-carbonitrile], the Ki is below 1 nM.
Regarding `CCOc1ccc(OC)cc1C1(N2CC3(CN(C4CCN(C)CC4)C3)C2)C(=O)N(S(=O)(=O)c2ccc(OC)cn2)C2C=C(C#N)C=CC21` (stereo not drawn) [US9688678, 29 (+-)-3-(2-ethoxy-5-methoxy-phenyl)-1-[(5-methoxy-2-pyridyl)sulfonyl]-3-[2-(1-methyl-4-piperidyl)-2,6-diazaspiro[3.3]heptan-6-yl]-2-oxo-indoline-6-carbonitrile], the Ki result is “in the range around 5.5 nM”.
For the molecule `CCOc1ccc(OC)cc1[C@]1(N2CC3(CN(C4CCN(C)CC4)C3)C2)C(=O)N(S(=O)(=O)c2cccc(OC)n2)C2C=CC(C#N)=CC21` (stereo partly drawn) [US9688678, 32 (3S)-3-(2-ethoxy-5-methoxy-phenyl)-1-[(6-methoxy-2-pyridyl)sulfonyl]-3-[2-(1-methyl-4-piperidyl)-2,6-diazaspiro[3.3]heptan-6-yl]-2-oxo-indoline-5-carbonitrile], the Ki entry is “in the range around 55 nM”.
`CCOc1ccc(OC)cc1[C@]1(N2CC3(CN(C4CCN(C)CC4)C3)C2)C(=O)N(S(=O)(=O)c2ccc(Cl)cn2)C2C=CC(C#N)=CC21` (stereo partly drawn) [US9688678, 34 (3S)-1-[(5-chloro-2-pyridyl)sulfonyl]-3-(2-ethoxy-5-methoxy-phenyl)-3-[2-(1-methyl-4-piperidyl)-2,6-diazaspiro[3.3]heptan-6-yl]-2-oxo-indoline-5-carbonitrile]: the Ki was below 1 nM.

These data come from BindingDB's records for patent US9688678 (Abbvie Deutschland, 2017).
